This is an account of results in PubChem BioAssay (NCI).

Among the test systems are IGROV1 ovarian; SF-295 CNS; LOX IMVI melanoma; SF-268 CNS; MALME-3M melanoma; OVCAR-4 ovarian; HOP-92 NSCLC; MCF7 breast; M14 melanoma; HOP-62 NSCLC.
Assay in all cases: NCI-60 cell line screen, 48 h

Where “and” joins values, the source holds several entries; their conditions need not be identical. Equal entries are not always repeated.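 Following 48 hours of exposure in 96-well plates, responses at five concentrations were used to interpolate endpoints linearly. GI50: concentration for 50% inhibition of growth. TGI: concentration producing complete growth inhibition.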

Turning to `COc1cc2c(c(Br)c1N)-c1cc(Br)c(N)cc1C2=O`, the GI50 with IGROV1 ovarian is 0.205 µM; with SF-295 CNS, over 100 µM; with LOX IMVI melanoma, over 100 µM; with SF-268 CNS, 7.37 µM; in the experiment on MALME-3M melanoma, over 100 µM; in the experiment on OVCAR-4 ovarian it was 1.77 µM. Besides, the GI50 was 2.98 µM in the experiment with HOP-92 NSCLC, 0.131 µM with MCF7 breast, 50.9 µM in the experiment with M14 melanoma and 10.1 µM with HOP-62 NSCLC. Moreover, the TGI with IGROV1 ovarian, with SF-295 CNS, with LOX IMVI melanoma, in the experiment with SF-268 CNS, with MALME-3M melanoma and with OVCAR-4 ovarian was over 100 µM throughout. The TGI with HOP-92 NSCLC, in the experiment with MCF7 breast, in the experiment with M14 melanoma and in the experiment with HOP-62 NSCLC was over 100 µM in each case.

Turning to `COc1ccc(C2=NN(c3ccc(S(N)(=O)=O)cc3)C(c3ccc(Cl)cc3)C2)c(O)c1` (stereo unspecified), the GI50 with IGROV1 ovarian is 3.63 µM; in the experiment on SF-295 CNS, 3.1 µM; in the experiment with LOX IMVI melanoma it was 4.83 µM; in the experiment with SF-268 CNS, 5.7 µM; in the experiment on MALME-3M melanoma it was 4.03 µM; in the experiment with OVCAR-4 ovarian it was 4.51 µM. The GI50 is 2.97 µM with HOP-92 NSCLC, 2.08 µM with MCF7 breast, 7.89 µM with M14 melanoma and 9.35 µM in the experiment on HOP-62 NSCLC. Also, the TGI with IGROV1 ovarian amounted to 15.2 µM; with SF-295 CNS, 14.5 µM; with LOX IMVI melanoma, 17 µM; with SF-268 CNS it was 25.5 µM; with MALME-3M melanoma it was 16.7 µM; with OVCAR-4 ovarian, 37.5 µM. Besides, the TGI with HOP-92 NSCLC came out at 15.6 µM; in the experiment on MCF7 breast it was 8.66 µM; in the experiment on M14 melanoma it was 25.2 µM; with HOP-62 NSCLC it was 28.5 µM.

For `c1ccc(CNc2nc(Nc3ccc(-c4nc5ccccc5[nH]4)cc3)c3cn[nH]c3n2)cc1`, the GI50 was 2.49 µM in the experiment on IGROV1 ovarian; 1.7 µM in the experiment on SF-295 CNS; 1.69 µM with LOX IMVI melanoma; 2.37 µM in the experiment on SF-268 CNS; 1.81 µM with MALME-3M melanoma; 2.28 µM in the experiment with OVCAR-4 ovarian. Moreover, the GI50 was 1.99 µM in the experiment on HOP-92 NSCLC, 1.95 µM in the experiment on MCF7 breast, 1.72 µM with M14 melanoma and 2.17 µM in the experiment with HOP-62 NSCLC. Moreover, the TGI in the experiment on IGROV1 ovarian was found to be 6.99 µM; with SF-295 CNS it was 3.84 µM; with LOX IMVI melanoma it was 3.36 µM; in the experiment on SF-268 CNS, 7.1 µM; with MALME-3M melanoma, 3.8 µM; in the experiment on OVCAR-4 ovarian, 7.14 µM. The TGI is 5.56 µM in the experiment with HOP-92 NSCLC, 6.35 µM with MCF7 breast, 3.81 µM in the experiment on M14 melanoma and 5.48 µM in the experiment with HOP-62 NSCLC.

As to `Cc1ccc2c(c1)/C(=N\N=C/c1cn(C(C)C)c3ccccc13)C(=O)N2`, the GI50 in the experiment with IGROV1 ovarian was 1.37 µM; with SF-295 CNS it was over 100 µM; in the experiment with LOX IMVI melanoma it was 2.55 µM; in the experiment with SF-268 CNS, 4.9 µM; in the experiment on MALME-3M melanoma it was 1.38 µM; with OVCAR-4 ovarian, 0.277 µM. Further, the GI50 with HOP-92 NSCLC was 1.73 µM; with MCF7 breast, 0.504 µM; in the experiment on M14 melanoma, 3.95 µM; in the experiment with HOP-62 NSCLC, 28.4 µM. Besides, the TGI in the experiment with IGROV1 ovarian was over 100 µM; in the experiment with SF-295 CNS, over 100 µM; in the experiment on LOX IMVI melanoma it was 25.2 µM; in the experiment with SF-268 CNS, over 100 µM; in the experiment with MALME-3M melanoma, 9.81 µM; in the experiment with OVCAR-4 ovarian, over 100 µM. In addition, the TGI in the experiment on HOP-92 NSCLC is 67.2 µM; with MCF7 breast it was over 100 µM; in the experiment with M14 melanoma it was over 100 µM; with HOP-62 NSCLC it was over 100 µM.

On to `CC(=O)NNc1nc(C)c(C(/C=C/c2ccc3c(c2)OCO3)=N/NC(=O)c2ccncc2)s1`, for which the TGI in the experiment with IGROV1 ovarian, with SF-295 CNS, with LOX IMVI melanoma, in the experiment on SF-268 CNS, with MALME-3M melanoma and with OVCAR-4 ovarian was over 100 µM throughout. In addition, the TGI in the experiment on HOP-92 NSCLC, with MCF7 breast, with M14 melanoma and with HOP-62 NSCLC was over 100 µM in each case.

For the compound `COc1ccc(C(NCCNC(c2ccc(OC)c(OC)c2)c2cc3c(cc2O)OCO3)c2cc3c(cc2O)OCO3)cc1OC` (stereo unspecified), the TGI with IGROV1 ovarian came out at 7.67 µM; with SF-295 CNS, 17.8 µM; in the experiment with LOX IMVI melanoma, 3.51 µM; in the experiment with SF-268 CNS it was 3.24 µM; with MALME-3M melanoma, 15.4 µM; in the experiment on OVCAR-4 ovarian, 11.5 µM. Also, the TGI in the experiment with HOP-92 NSCLC was 17.1 µM; in the experiment with MCF7 breast it was 3.36 µM; in the experiment on M14 melanoma it was 8.39 µM; in the experiment with HOP-62 NSCLC, 30.6 µM.

As for `C/C(=N\NC(=S)Nc1ccccc1)c1ccccn1`, the GI50 with IGROV1 ovarian was under 0.0163 µM; in the experiment with SF-295 CNS, 0.109 µM; with LOX IMVI melanoma, 0.0395 µM; in the experiment on SF-268 CNS it was 0.205 µM; in the experiment with MALME-3M melanoma it was 0.121 µM; in the experiment with OVCAR-4 ovarian, 0.0362 µM. In addition, the GI50 was under 0.0162 µM in the experiment on HOP-92 NSCLC, 0.0148 µM in the experiment with MCF7 breast, 0.0624 µM in the experiment on M14 melanoma and 0.0708 µM with HOP-62 NSCLC. For the same compound, the TGI in the experiment on IGROV1 ovarian came to 9.26 µM; in the experiment with SF-295 CNS, 10.7 µM; in the experiment on LOX IMVI melanoma it was 2.04 µM; with SF-268 CNS it was 5.17 µM; with MALME-3M melanoma, 5.39 µM; in the experiment on OVCAR-4 ovarian, 1.78 µM. The TGI stood at 0.607 µM in the experiment on HOP-92 NSCLC, 11.8 µM in the experiment with MCF7 breast, 2.17 µM with M14 melanoma and 3.61 µM with HOP-62 NSCLC.

Turning to `O=C(O)Cc1ccccc1`, the GI50 in the experiment with IGROV1 ovarian, in the experiment on LOX IMVI melanoma, in the experiment with SF-268 CNS, in the experiment with MALME-3M melanoma, in the experiment with OVCAR-4 ovarian and in the experiment on HOP-92 NSCLC was over 1000 µM each time. Also, the GI50 in the experiment with M14 melanoma and with HOP-62 NSCLC was over 1000 µM each time. For the same compound, the TGI in the experiment on IGROV1 ovarian is over 2000 µM; in the experiment on SF-295 CNS, over 2000 µM; in the experiment on LOX IMVI melanoma, over 2000 µM; in the experiment with SF-268 CNS it was over 2000 µM; with MALME-3M melanoma it was > 1000 µM and 1970 µM; in the experiment on OVCAR-4 ovarian it was > 1000 µM and 727 µM. Moreover, the TGI in the experiment on HOP-92 NSCLC was > 1000 µM and 1250 µM; in the experiment on MCF7 breast, over 2000 µM; in the experiment with M14 melanoma, over 2000 µM; in the experiment on HOP-62 NSCLC, over 2000 µM.

Regarding `O=[N+]([O-])c1ccc([I+]c2ccccc2)cc1`, the TGI is 35.3 µM with IGROV1 ovarian; 10.1 µM and 3.24 µM with SF-295 CNS; 1.99 µM in the experiment with LOX IMVI melanoma; 13.1 µM and 3.11 µM in the experiment with SF-268 CNS; 11.2 µM and 3.54 µM in the experiment with MALME-3M melanoma; 11.9 µM and 3.69 µM in the experiment with OVCAR-4 ovarian. Moreover, the TGI in the experiment on HOP-92 NSCLC was 23.5 µM and 25.1 µM; in the experiment with MCF7 breast it was 10.3 µM and 8.25 µM; in the experiment on M14 melanoma, 16.4 µM and 4.33 µM; with HOP-62 NSCLC, 25.6 µM and 3.3 µM. Besides, the GI50 in the experiment on SF-295 CNS was 1.64 µM; with LOX IMVI melanoma, 0.583 µM; with SF-268 CNS it was 1.65 µM; with MALME-3M melanoma it was 1.31 µM; in the experiment on OVCAR-4 ovarian, 1.67 µM; in the experiment with MCF7 breast it was 2.24 µM. The results for the GI50 in the experiment on M14 melanoma and with HOP-62 NSCLC were 1.97 µM and 1.56 µM, respectively.

`CC1(C)OCC(C2OC(On3nnc4ccc(Cl)cc43)C3OC(C)(C)OC23)O1` (stereo unspecified): the TGI in the experiment on IGROV1 ovarian, in the experiment on SF-295 CNS, with LOX IMVI melanoma, in the experiment on SF-268 CNS, in the experiment with MALME-3M melanoma and with OVCAR-4 ovarian was over 100 µM in each case. In addition, the TGI in the experiment with HOP-92 NSCLC, in the experiment on MCF7 breast, with M14 melanoma and in the experiment with HOP-62 NSCLC was over 100 µM in each case.

As for `O=C1c2cccnc2-c2nc(-c3ccccc3)cc3c2c1nc1ccccc13`, the GI50 is 2.35 µM with IGROV1 ovarian; 11.4 µM in the experiment with SF-295 CNS; 6.37 µM in the experiment with LOX IMVI melanoma; 3.93 µM in the experiment on SF-268 CNS; 3.38 µM in the experiment with MALME-3M melanoma; 4.33 µM in the experiment on OVCAR-4 ovarian. Besides, the GI50 with HOP-92 NSCLC was 20.3 µM; with MCF7 breast it was 1.09 µM; with M14 melanoma, 3.57 µM; in the experiment on HOP-62 NSCLC, 14.5 µM. Moreover, the TGI with IGROV1 ovarian came to 8.92 µM; with SF-295 CNS, 25.3 µM; in the experiment with LOX IMVI melanoma it was 32.6 µM; in the experiment on SF-268 CNS, 18.8 µM; in the experiment with MALME-3M melanoma it was 16.1 µM; in the experiment on OVCAR-4 ovarian, 10.1 µM. Moreover, the TGI with HOP-92 NSCLC came to 80.4 µM; with MCF7 breast it was 4.11 µM; in the experiment with M14 melanoma, 15.7 µM; in the experiment with HOP-62 NSCLC it was 28.3 µM.

Take `Cn1cc(-c2csc(-c3cn(C)c4ncccc34)n2)c2ccccc21`: the GI50 was 1.28 µM in the experiment on IGROV1 ovarian; 0.274 µM with SF-295 CNS; 0.652 µM in the experiment on LOX IMVI melanoma; 1.12 µM in the experiment on SF-268 CNS; 0.647 µM with MALME-3M melanoma; 7.1 µM in the experiment with OVCAR-4 ovarian. Also, the GI50 with HOP-92 NSCLC is 0.346 µM; in the experiment with MCF7 breast, 0.322 µM; with M14 melanoma it was 0.256 µM; with HOP-62 NSCLC, 0.622 µM. For the same compound, the TGI with IGROV1 ovarian is 33.6 µM; with SF-295 CNS it was 12.6 µM; in the experiment on LOX IMVI melanoma, over 100 µM; in the experiment on SF-268 CNS it was 37.4 µM; with MALME-3M melanoma, 41 µM; with OVCAR-4 ovarian, 44 µM. In addition, the TGI with HOP-92 NSCLC was 14.1 µM; in the experiment on MCF7 breast it was over 100 µM; in the experiment with M14 melanoma it was over 41.4 µM; in the experiment on HOP-62 NSCLC it was 19.3 µM.
